The results in this text go back to patent publication EP4748844A1, “AZETIDINE COMPOUND AND MEDICAL USE THEREOF” (SHANGHAI INSTITUTE OF MATERIA MEDICA, CHINESE ACADEMY OF …, priority 2023, dated 2025).

Experiment [1] relates to DMXAA induced ISG gene expression in mouse RAW-Lucia cells. The experiment is described as follows: Inhibition of DMXAA-induced ISG gene expression in mouse RAW-Lucia cells (QUANTI-Luc). As to conditions: STING agonist DMXAA 50 µM, incubated for 24 hours. Type of experiment: cell-based. How it is done:
10 µL of compound diluted with PBS/physiological saline was added to each well of a 96 well cell culture plate. The STING agonist was DMXAA, which was added to the counted cell suspension at a final concentration of 50 µM. For the control group without compounds, 10 µL of PBS/physiological saline containing 2% DMSO was added. 3 replicate wells were set in each group. RAW-Lucia cells were counted and adjusted to a cell concentration of 4×10^5/mL, and […] of cells were added to each well for incubation. Therefore, the final volume of each test well was 200 µL, the content of DMSO was 0.1%, and the final concentration of the compound tested was 10/3.3/1.1/0.4/0.13/0.04/0.013/0.004 µM. The final concentration of STING agonist DMXAA was 50 µM. The mixture was incubated for 24 hours. In addition, 200 µL of culture medium was added to the blank group. 3 replicate wells were set in each group.
After 24 hours, 20 µL of culture medium was taken from each well and transferred to a new 96 well plate with photopermeable bottom. 50 µL of the luciferase detection reagent QUANTI-Luc™ was added, and the […] was immediately measured (avoid light).
Result analysis: Inhibition rate (%) = (Con(Lum)−Treated(Lum))/Con(Lum) × 100% [formula]
(§1) The IC50 calculation of inhibitors was implemented using the Graphpad Prism 8 software's calculation method log (inhibitor) vs. response - Variable slope (four parameters), with a constrain interval of 0-100.

Experiment [2] concerns ISG gene expression induced by MSA-2 in human THP1-Dual cells. Kind of experiment: Inhibition of MSA-2-induced ISG gene expression in human THP1-Dual cells (QUANTI-Luc). It is filed as cell-based. The following applies: STING agonist MSA-2 10 µM, incubated for 24 hours. The procedure:
10 µL of compound diluted with PBS/physiological saline was added to each well of a 96 well cell culture plate. The STING agonist was MSA-2, which was added to the counted cell suspension at a final concentration of 10 µM. For the control group without compounds, 10 µL of PBS/physiological saline containing 2% DMSO was added. 3 replicate wells were set in each group. THP1-Dual cells were counted and adjusted to a cell concentration of 4×10^5/mL, and 190 µL of cells containing STING agonist were added to each well for incubation. Therefore, the final volume of each test well was 200 µL, the content of DMSO was 0.1%, and the final concentration of the compound tested was 10/3.3/1.1/0.4/0.13/0.04/0.013/0.004 µM, incubated for 24 hours. In addition, 190 µL of cells without STING agonist and 10 µL of physiological saline containing 2% DMSO were added to the blank group. 3 replicate wells were set in each group.
After 24 hours, 20 µL of culture medium for THP1-Dual cells was taken from each well and transferred to a new 96 well plate with photopermeable bottom. 50 µL of the luciferase detection reagent QUANTI-Luc™ was added, and the […] was immediately measured (avoid light). Result analysis:Inhibition rate (%) = (Con(Lum)−Treated(Lum))/Con(Lum) × 100% [formula]
as §1

One may read the IC50 as the concentration at which inhibition is half-maximal. The low end stands for inhibition by little substance, the high end for a need for much substance. Take `O=C(Nc1c[nH]c2ccccc12)c1cc2c(s1)SCC(=O)N2Cc1ccco1` [Example I-118, 1-(furan-2-ylmethyl)-N-(1H-indol-3-yl)-2-oxo-2,3-dihydro-1H-thieno[2,3-b] [1,4]thiazin-6-carboxamide]: the IC50 in experiment [1] was found to be 45.2 nM; in experiment [2], 232 nM.
As to `CC1(C)C(=O)N(Cc2ccoc2)c2cc(C(=O)Nc3c[nH]c4ccccc34)sc21` [Example I-86, 4-(furan-3-ylmethyl)-N-(1H-indol-3-yl)-6,6-dimethyl-5-oxo-5,6-dihydro-4H-thieno[3,2-b]pyrrol-2-carboxamide], the IC50 in experiment [2] came to 221 nM.
`CC1(C)C(=O)N(Cc2cccc3ccoc23)c2cc(C(=O)Nc3c[nH]c4ccc(Cl)cc34)ccc21` [Example I-128, 1-(benzofuran-7-ylmethyl)-N-(5-chloro-1H-indol-3-yl)-3,3-dimethyl-2-oxoindolin-6-carboxamide]: the IC50 in experiment [1] and in experiment [2] was 39.4 nM each time.
Take `CC1(C)C(=O)N(Cc2csc(Cl)c2)c2cc(C(=O)Nc3c[nH]c4ccccc34)ccc21` [Example I-84, 1-((5-chlorothien-3-yl)methyl)-N-(1H-indol-3-yl)-3,3-dimethyl-2-oxoindolin-6-carboxamide]: the IC50 in experiment [1] was determined as 4.69 nM; in experiment [2], 20.5 nM.
Turning to `O=C(Nc1c[nH]c2ccc(F)cc12)c1cc2c(s1)SCC(=O)N2Cc1cc(F)cc(C(F)(F)F)c1` [Example I-124, N-(5-fluoro-1H-indol-3-yl)-1-(3-fluoro-5-(trifluoromethyl)benzyl)-2-oxo-2,3-dihydro-1H-thieno[2,3-b][1,4]thiazin-6-carboxamide], the IC50 is less than 3 nM in experiment [1] and 48 nM in experiment [2].
For the compound `O=C(Nc1c[nH]c2cc(F)c(F)cc12)c1cc2c(s1)SCC(=O)N2Cc1cc(F)cc(C(F)(F)F)c1` [Example I-125, N-(5,6-difluoro-1H-indol-3-yl)-1-(3-fluoro-5-(trifluoromethyl)benzyl)-2-oxo-2,3-dihydro-1H-thieno[2,3-b][1,4]thiazin-6-carboxamide], the IC50 was determined as 5.26 nM in experiment [1] and 76.6 nM in experiment [2].
Turning to `O=C(Nc1c[nH]c2ccccc12)c1cc2c(s1)SCC(=O)N2Cc1cccs1` [Example I-114, N-(1H-indol-3-yl)-2-oxo-1-(thien-2-ylmethyl)-2,3-dihydro-1H-thieno[2,3-b][1,4]thiazin-6-carboxamide], the IC50 in experiment [2] stood at 164 nM.
Consider “1-((4-chlorothien-3-yl)methyl)-N-(1H-indol-3-yl)-3,3-dimethyl-2-oxoindolin-6-carboxamide [Example I-89]”, for which the IC50 in experiment [2] amounted to 119 nM.
Consider `O=C(Nc1c[nH]c2ccccc12)c1cc2c(s1)SCC(=O)N2Cc1cccc2ccoc12` [Example I-120, 1-(benzofuran-7-ylmethyl)-N-(1H-indol-3-yl)-2-oxo-2,3-dihydro-1H-thieno[2,3-b][1,4]thiazin-6-carboxamide], for which the half-inhibitory concentration (IC50) came out at 8.7 nM in experiment [1] and 96.5 nM in experiment [2].
As for `CC1(C)C(=O)N(Cc2coc(Cl)c2)c2cc(C(=O)Nc3c[nH]c4ccccc34)sc21` [Example I-91, 4-((5-chlorofuran-3-yl)methyl)-N-(1H-indol-3-yl)-6,6-dimethyl-5-oxo-5,6-dihydro-4H-thieno[3,2-b]pyrrol-2-carboxamide], the half-maximal inhibitory concentration (IC50) in experiment [2] came to 117 nM.
Turning to `O=C(Nc1c[nH]c2ccccc12)c1cc2c(s1)SCC(=O)N2Cc1ccoc1` [Example I-117, 1-(furan-3-ylmethyl)-N-(1H-indol-3-yl)-2-oxo-2,3-dihydro-1H-thieno[2,3-b][1,4]thiazin-6-carboxamide], the IC50 was 76.7 nM in experiment [1] and 85 nM in experiment [2].
Turning to `CC1(C)C(=O)N(Cc2csc(C(F)(F)F)c2)c2cc(C(=O)Nc3c[nH]c4ccccc34)ccc21` [Example I-102], the IC50 worked out at 10.6 nM in experiment [1] and 20.8 nM in experiment [2].
For `O=C(Nc1c[nH]c2ccccc12)c1cc2c(s1)SCC(=O)N2Cc1ccc2occc2c1` [Example I-113, 1-(benzofuran-5-ylmethyl)-N-(1H-indol-3-yl)-2-oxo-2,3-dihydro-1H-thieno[2,3-b][1,4]thiazin-6-carboxamide], the IC50 is 27.9 nM in experiment [1] and 39.4 nM in experiment [2].
As to `CC1(C)C(=O)N(Cc2ccc3c(c2)OCO3)c2cc(C(=O)Nc3c[nH]c4ccccc34)ccc21` [Example I-92, 1-(benzo[d][1,3]dihydroxyl-5-ylmethyl)-N-(1H-indol-3-yl)-3,3-dimethyl-2-oxoindol-6-carboxamide], the results for the IC50 in experiment [1] and in experiment [2] were 94 nM and 28.8 nM, respectively.
Take `CC1(C)C(=O)N(Cc2cccc3ccoc23)c2cc(C(=O)Nc3c[nH]c4cc(F)c(F)cc34)ccc21` [Example I-127, 1-(benzofuran-7-ylmethyl)-N-(5,6-difluoro-1H-indol-3-yl)-3,3-dimethyl-2-oxoindolin-6-carboxamide]: in experiment [2], the IC50 was found to be 291 nM.
For `CC1(C)C(=O)N(Cc2ccccc2-c2ccccc2)c2cc(C(=O)Nc3c[nH]c4ccccc34)ccc21` [Example I-95, 1-([1,1'-biphenyl]-2-ylmethyl)-N-(1H-indol-3-yl)-3,3-dimethyl-2-oxoindolin-6-carboxamide], the IC50 in experiment [2] came out at 228 nM.
The compound `CC1(C)C(=O)N(CC2CN(c3cc(F)cc(C(F)(F)F)c3)C2)c2cc(C(=O)Nc3c[nH]c4ccc(F)cc34)ccc21` [Example I-28] registered a concentration for half-maximal inhibition (IC50) in experiment [1] of 62 nM.
`CC1(C)C(=O)N(Cc2cc(F)cc(C(F)(F)F)c2)c2cc(C(=O)Nc3c[nH]c4ccccc34)sc21` [Example I-88, 4-(3-fluoro-5-(trifluoromethyl)benzyl)-N-(1H-indol-3-yl)-6,6-dimethyl-5-oxo-5,6-dihydro-4H-thieno[3,2-b]pyrrol-2-carboxamide]: the IC50 in experiment [2] came to 143 nM.
The compound `CC1(C)C(=O)N(Cc2ccc3[nH]ccc3c2)c2cc(C(=O)Nc3c[nH]c4ccccc34)ccc21` [Example I-94, 1-(indol-5-ylmethyl)-N-(1H-indol-3-yl)-3,3-dimethyl-2-oxoindolin-6-carboxamide] returned a half-maximal inhibitory concentration (IC50) in experiment [2] of 106 nM.
`O=C(Nc1c[nH]c2ccccc12)c1cc2c(s1)SCC(=O)N2CC1CC1` [Example I-116, 1-(cyclopropylmethyl)-N-(1H-indol-3-yl)-2-oxo-2,3-dihydro-1H-thieno[2,3-b][1,4]thiazin-6-carboxamide]: in experiment [2], the IC50 was found to be 206 nM.
`CC1(C)C(=O)N(Cc2ccccc2)c2cc(C(=O)Nc3c[nH]c4ccccc34)sc21` [Example I-87, 4-benzyl-N-(1H-indol-3-yl)-6,6-dimethyl-5-oxo-5,6-dihydro-4H-thieno[3,2-b]pyrrol-2-carboxamide]: the IC50 in experiment [2] was 149 nM.
`CC1(C)C(=O)N(Cc2ccc3occc3c2)c2cc(C(=O)Nc3c[nH]c4ccccc34)ccc21` [Example I-93, 1-(benzofuran-5-ylmethyl)-N-(1H-indol-3-yl)-3,3-dimethyl-2-oxoindolin-6-carboxamide]: the IC50 in experiment [2] turned out to be 74.8 nM.
For the compound `CC1(C)C(=O)N(Cc2csc(C(F)(F)F)c2)c2cc(C(=O)Nc3c[nH]c4ccccc34)sc21` [Example I-90, N-(1H-indol-3-yl)-6,6-dimethyl-5-oxo-4-((5-(trifluoromethyl)thien-3-yl)methyl)-5,6-dihydro-4H-thieno[3,2-b]pyrrol-2-carboxamide], the IC50 in experiment [2] came out at 98 nM.
Take `O=C(Nc1c[nH]c2ccccc12)c1cc2c(s1)SCC(=O)N2CC1CCOCC1` [Example I-119, N-(1H-indol-3-yl)-2-oxo-1-((tetrahydro-2H-pyran-4-yl)methyl)-2,3-dihydro-1H-thieno[2,3-b][1,4]thiazin-6-carboxamide]: the IC50 in experiment [1] amounted to 45.5 nM.
